From patent US11092596B2, “Material and method to screen proteasome stimulators” (Purdue Research Foundation, priority 2017, dated 2021)
Where a name gives a salt, the structure may show the parent alone. One block for each compound: values may come before it.

Columns and labels:
Suc-LLVY-AMC = tested on: T1, Suc-LLVY-AMC
T1 sequence: LLVY

[1] = tested on: T2, chymotrypsin-like FRET reporter (CT-L FRET), Lys(Y1)-Met-Ser-Gly-Phe-Ala-Ala-Thr-Ala-Glu(Y2)-Gly
T2 sequence: KMSGFAATAEG

[2] = molecular target: T3, chymotrypsin-like activity of the 20S CP (Homo sapiens, UniProt P28074); assay: Kinetic assay, CT-L FRET reporter hydrolysis by purified 20S CP; assay type: biochemical; settings: for increase in the rate of hydrolysis (CT-L FRET reporter): 9 nM 20S CP, vs basal
T3 construct: 5 μL purified 20S proteasome (90 nM in Tris-HCl) was added to the control and test wells
Method: (§1) Plate preparation for the kinetic assay was performed similarly for all assays. All 96-well plates contained the following in triplicate: reporter background, containing reporter only, and control wells, containing reporter and purified 20S CP. It was determined that each well will contain a total volume of 50 μL. To each well was added 40 μL of the coumarin or FRET reporters (in Tris-HCl, 50 mM, pH 7.7). To the reporter background wells was added 7.5 μL Tris-HCl and 2.5 μL of the solvent in which the compound of interest was dissolved or diluted. Similarly, to the control wells was added 2.5 μL Tris-HCl and 2.5 μL of the solvent in which the compound of interest was dissolved or diluted. To the test wells was added 2.5 μL Tris-HCl and 2.5 μL of the compound of interest at a predetermined concentration. Immediately prior to running the assay on the Synergy 4 Plate Reader, 5 μL purified 20S proteasome (90 nM in Tris-HCl) was added to the control and test wells.
(§2) The Synergy 4 Plate Reader was set to heat the plate at 37° C. and read fluorescence every 2 min over a 40 min period. The excitation and emission wavelengths were set according to the reporter. For the FRET reporter, the excitation and emission wavelengths were set to 335 nm and 493 nm, respectively, corresponding to the excitation and emission wavelengths of the Edans fluorophore. For the coumarin reporter, the excitation and emission wavelengths were set to 380 nm and 460 nm, respectively.
(§3) AM-404 was used as a positive control compound to test the dose-response screening capabilities of the CT-L FRET reporter. The following concentrations of AM-404 were tested in triplicate: 50, 25, and 12.5 μM. To each well was added 40 μL 20 μM CT-L FRET (in Tris-HCl, 50 mM, pH 7.7). To the reporter background wells was added 5 μL Tris-HCl and 5 μL 1:1 Tris-HCl:DMSO. Similarly, to the control wells was added 5 μL 1:1 Tris-HCl:DMSO. To the 50 μM AM-404 test wells was added 2.5 μL Tris-HCl and 2.5 μL 1000 μM AM-404 in DMSO. To the 25 μM AM-404 test wells was added 2.5 μL Tris-HCl and 2.5 μL 500 μM AM-404 in DMSO. To the 12.5 μM AM-404 test wells was added 2.5 μL Tris-HCl and 2.5 μL 250 μM AM-404 in DMSO. Immediately prior to running the assay on the Synergy 4 Plate Reader, 5 μL purified 20S proteasome (90 nM in Tris-HCl) was added to the control and test wells. The assay was performed using the Synergy 4 plate reader as described for the general screening kinetic assay procedure.
as §3, with “Fenofibrate was” for “AM-404 was”, “a negative” for “a positive”, “of fenofibrate” for “of AM-404”, “μM fenofibrate” for “μM AM-404”, “procedure. […]” for “procedure.”

20S CP = 20S CP (Homo sapiens, UniProt P28074); settings: in cellulo, Suc-LLVY-AMC reporter, previously reported; read-out: EC50 as 20S CP stimulator; cited from earlier work
26S proteasome = settings: at concentrations as low as 5 μM; cited from earlier work
[3] = molecular target: T3, chymotrypsin-like activity of the 20S CP; assay: Kinetic assay, Suc-LLVY-AMC reporter hydrolysis by purified 20S CP; assay type: biochemical
Method: as §1
as §2, with “For the coumarin reporter, the excitation and emission wavelengths were set to 380 nm and 460 nm, respectively.” left out
Sodium dodecyl sulfate (SDS) was used to test the effect stimulating the 20S proteasome has on the hydrolysis of the FRET reporters. The appropriate concentration of SDS to use in the kinetic assay was determined using the small chymotrypsin-like activity reporter, Suc-LLVY-AMC (SEQ ID NO: 4). […] In triplicate, the following final concentrations of SDS were analyzed for the effect each has on the activity of the 20S proteasome: 4000 μM, 2000 μM, 1000 μM, 500 μM, 250 μM, 125 μM, and 0 μM, the basal activity of the 20S proteasome. […] Immediately prior to reading the plate with the Synergy 4 plate reader, 5 μL purified 20S proteasome (90 nM in Tris-HCl) was added to the wells at a final concentration of 9 nM per well.
The Synergy 4 Plate Reader was set to heat the plate at 37° C. and read fluorescence every 2 min over a 1 hr period. […] The resulting data in relative fluorescence units (RFU) was analyzed using GraphPad Prism and was plotted against time in minutes. […] Based on the resulting curve and the hyperbolic curve obtained using 1000 μM SDS (FIG. 11b), it was determined that 500 μM SDS was the appropriate concentration to use to test the effect stimulating the 20S proteasome has on the hydrolysis of the FRET reporters.
Stimulation of the 20S proteasome with SDS was determined using both the coumarin and FRET reporters for the chymotrypsin-like and trypsin-like activities of the 20S CP. […]

[4] = molecular target: T4, trypsin-like activity of the 20S CP (Homo sapiens, UniProt Q99436); assay: Kinetic assay, T-L FRET reporter hydrolysis by purified 20S CP; assay type: biochemical; settings: 500 μM SDS
Method: as §1
as §2, with “For the coumarin reporter, the excitation and emission wavelengths were set to 380 nm and 460 nm, respectively.” left out
(§4) Stimulation of the 20S proteasome with SDS was determined using both the coumarin and FRET reporters for the chymotrypsin-like and trypsin-like activities of the 20S CP. […] Immediately prior to running the assay on the Synergy 4 Plate Reader, 5 μL purified 20S proteasome (90 nM in Tris-HCl) was added to the control and test wells. The assay was performed using the Synergy 4 plate reader as described for the general screening kinetic assay procedure. […]
To each well was added 40 μL 20 μM T-L FRET reporter (in Tris-HCl, 50 mM, pH 7.7). […] Immediately prior to running the assay on the Synergy 4 Plate Reader, 5 μL purified 20S proteasome (90 nM in Tris-HCl) was added to the control and test wells.

[5] = molecular target: T4, trypsin-like activity of the 20S CP; assay: Kinetic assay, Bz-VGR-AMC reporter hydrolysis by purified 20S CP; assay type: biochemical; settings: 500 μM SDS
Method: as §1, with “To the test wells was added 2.5 μL Tris-HCl and 2.5 μL of the compound of interest at a predetermined concentration.” left out
The Synergy 4 Plate Reader was set to heat the plate at 37° C. and read fluorescence every 2 min over a 40 min period. […]
as §4, with “wells.” for “wells. The assay was performed using the Synergy 4 plate reader as described for the general screening kinetic assay procedure.”

Compound: 20S core particle (20S CP) of the proteasome
rate of hydrolysis (average basal level, no stimulator) (Suc-LLVY-AMC): 60 ΔRFU/min | Mean Signal (Rate), Basal (background) activity of the 20S CP [1]: 5.3 | rate of hydrolysis (average basal level, no stimulator) [1]: 2.9 ΔRFU/min

Compound: CCCCC/C=C\C/C=C\C/C=C\C/C=C\CCCC(=O)Nc1ccc(O)cc1 [AM-404]
increase in the rate of hydrolysis (CT-L FRET reporter) ([2]; 12.5 μM compound (lowest concentration tested)): 4 fold | increase in the rate of hydrolysis (CT-L FRET reporter) ([2]; 25.0 μM compound): 5 fold | increase in the rate of hydrolysis (CT-L FRET reporter) ([2]; 50.0 μM compound): 7 fold | Mean Signal (Rate) ([2]; CT-L FRET reporter, 20S CP, basal 5.300): 40.46 | dose dependence of 20S CP stimulation ([2]; CT-L FRET reporter, dose response curve): dose-dependent | EC50 (20S CP): ~32 µM

Compound: O=C(O)c1cc(O)c2c(c1)[C@@H]([C@H]1c3cc(C(=O)O)cc(O)c3C(=O)c3c(O[C@@H]4O[C@H](CO)[C@@H](O)[C@H](O)[C@H]4O)cccc31)c1cccc(O[C@@H]3O[C@H](CO)[C@@H](O)[C@H](O)[C@H]3O)c1C2=O [Compound 4, Sennoside B]
validation of primary hits in triplicate ([2]; 25 μM, newly purchased compound, CT-L FRET reporter): did not perform as it had in the initial screen

Compound: CN(C)C(=O)C(CCN1CCC(O)(c2ccc(Cl)cc2)CC1)(c1ccccc1)c1ccccc1 [Loperamide HCl]
stimulation of the 26S proteasome (26S proteasome): stimulate the 26S proteasome

Compound: CCCCCCCCCCCCOS(=O)(=O)[O-].[Na+] [SDS, sodium dodecyl sulfate]
increase in the rate, CT-L FRET reporter ([2]; 500 μM SDS vs basal): 8.3 fold | average rate of hydrolysis, CT-L FRET reporter ([2]; 500 μM SDS, basal 2.9 ΔRFU/min): 24 ΔRFU/min | increase in the rate, Suc-LLVY-AMC reporter ([3]; 500 μM SDS vs basal): 2.4 fold | average rate of hydrolysis, Suc-LLVY-AMC reporter ([3]; 500 μM SDS, basal 60 ΔRFU/min): 145 ΔRFU/min | increase in the rate of hydrolysis of T-L FRET reporter compared to basal activity [4]: 5 fold | increase in the rate of hydrolysis of Bz-VGR-AMC compared to basal activity [5]: 2 fold

decrease in the rate of hydrolysis of the CT-L FRET reporter ([2]; 2 μM bortezomib): 40%
Compound: CC(C)C[C@H](NC(=O)[C@H](Cc1ccccc1)NC(=O)c1cnccn1)B(O)O [bortezomib]
